Reference: ChEMBL document CHEMBL1201862, “PubChem BioAssay data set” (2004)
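Growth conditions: 96-well plates. Treatment: test compound, 48 hours, 5 concentrations. Analysis: linear interpolation between bracketing concentrations; unreached endpoints set to highest concentration. Abbreviation: GI50, concentration required for 50% inhibition of growth.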 Calls of active or inactive are those of the source. Rule as the data show it: active = GI50 up to about 1.1 µM and inactive = higher.

Assays:
Experiment in all cases: NCI anticancer screen, dose series, 48 h
[1] = tested on: HL-60
[2] = tested on: ACHN
[3] = tested on: HOP-18
[4] = tested on: UACC-62
[5] = tested on: HCT-116
[6] = tested on: KM12
[7] = tested on: DMS-114
[8] = tested on: OVCAR-8
[9] = tested on: UACC-257
[10] = tested on: SN12C
[11] = tested on: DMS-273
[12] = tested on: COLO 205
[13] = tested on: TK-10
[14] = tested on: CAKI-1
[15] = tested on: M14
[16] = tested on: UO-31
[17] = tested on: SNB-75
[18] = tested on: LXFL 529
[19] = tested on: DLD-1
[20] = tested on: HOP-92
[21] = tested on: LOX IMVI
[22] = tested on: NCI-H460
[23] = tested on: HOP-62
[24] = tested on: A549
[25] = tested on: 786-0
[26] = tested on: XF498
[27] = tested on: EKVX
[28] = tested on: SF-268
[29] = tested on: RPMI-8226
[30] = tested on: HT-29
[31] = tested on: HCT-15
[32] = tested on: SK-MEL-28
[33] = tested on: SNB-78
[34] = tested on: MOLT-4
[35] = tested on: SNB-19
[36] = tested on: SR
[37] = tested on: OVCAR-5
[38] = tested on: OVCAR-3
[39] = tested on: NCI-H226
[40] = tested on: A498
[41] = tested on: SW-620
[42] = tested on: RXF 393
[43] = tested on: SK-MEL-2
[44] = tested on: SK-MEL-5
[45] = tested on: Malme-3M
[46] = tested on: SK-OV-3
[47] = tested on: K562
[48] = tested on: NCI-H522
[49] = tested on: KM-20L2
[50] = tested on: RXF 631
[51] = tested on: CCRF-CEM
[52] = tested on: OVCAR-4
[53] = tested on: SF-295
[54] = tested on: U-251
[55] = tested on: M19-MEL
[56] = tested on: NCI-H23

For `CC(=O)Oc1ccc(CO)cc1OC(C)=O`, the GI50 [1] was 24.5 µM (inactive), the GI50 [2] was > 100 µM (inactive) and the GI50 [3] was > 100 µM (inactive). For the same molecule, the GI50 [4] was > 100 µM (inactive), the GI50 [5] was > 100 µM (inactive) and the GI50 [6] was > 100 µM (inactive). For the same molecule, the GI50 [7] was 40.3 µM (inactive), the GI50 [8] was > 100 µM (inactive) and the GI50 [9] was > 100 µM (inactive). The GI50 [10] was > 100 µM (inactive), the GI50 [11] was > 100 µM (inactive) and the GI50 [12] was > 100 µM (inactive). The GI50 [13] was > 100 µM (inactive), the GI50 [14] was > 100 µM (inactive) and the GI50 [15] was > 100 µM (inactive). The GI50 [16] was > 100 µM (inactive), the GI50 [17] was > 100 µM (inactive) and the GI50 [18] was > 100 µM (inactive). The GI50 [19] was > 100 µM (inactive), the GI50 [20] was > 100 µM (inactive) and the GI50 [21] was > 100 µM (inactive). For the same molecule, the GI50 [22] was > 100 µM (inactive), the GI50 [23] was > 100 µM (inactive) and the GI50 [24] was > 100 µM (inactive). The GI50 [25] was > 100 µM (inactive), the GI50 [26] was 92.9 µM (inactive) and the GI50 [27] was 32.2 µM (inactive). The GI50 [28] was > 100 µM (inactive), the GI50 [29] was 51.6 µM (inactive) and the GI50 [30] was > 100 µM (inactive). The GI50 [31] was > 100 µM, the GI50 [32] was > 100 µM (inactive) and the GI50 [33] was > 100 µM (inactive). For the same molecule, the GI50 [34] was > 100 µM (inactive), the GI50 [35] was > 100 µM (inactive) and the GI50 [36] was > 100 µM (inactive). For the same molecule, the GI50 [37] was > 100 µM (inactive), the GI50 [38] was > 100 µM (inactive) and the GI50 [39] was > 100 µM (inactive). For the same molecule, the GI50 [40] was > 100 µM (inactive), the GI50 [41] was > 100 µM (inactive) and the GI50 [42] was > 100 µM (inactive). For the same molecule, the GI50 [43] was > 100 µM (inactive), the GI50 [44] was > 100 µM (inactive) and the GI50 [45] was > 100 µM (inactive). The GI50 [46] was > 100 µM (inactive), the GI50 [47] was 57.8 µM (inactive) and the GI50 [48] was 36.3 µM (inactive). For the same molecule, the GI50 [49] was > 100 µM (inactive), the GI50 [50] was 63.2 µM (inactive) and the GI50 [51] was 27.6 µM (inactive). The GI50 [52] was > 100 µM (inactive), the GI50 [53] was > 100 µM (inactive) and the GI50 [54] was > 100 µM (inactive). The GI50 [55] was > 100 µM (inactive).

`N#CC1=C(c2ccccc2)NN(Cc2ccccc2)C(c2ccc(Cl)cc2)CC1=O` (stereo not given) was tested, and the GI50 [1] was 28.2 µM (inactive), the GI50 [2] was 23.3 µM (inactive) and the GI50 [3] was 17 µM (inactive). The GI50 [5] was 18.7 µM (inactive), the GI50 [6] was 25.8 µM (inactive) and the GI50 [7] was 32.3 µM (inactive). For the same molecule, the GI50 [9] was 37.8 µM (inactive), the GI50 [11] was 21.4 µM (inactive) and the GI50 [12] was 36.1 µM (inactive). For the same molecule, the GI50 [13] was 42.8 µM (inactive), the GI50 [14] was 30.1 µM (inactive) and the GI50 [17] was 18.3 µM (inactive). The GI50 [18] was 20.4 µM (inactive), the GI50 [56] was 20.1 µM (inactive) and the GI50 [19] was 15.7 µM (inactive). The GI50 [20] was 16.3 µM (inactive), the GI50 [21] was 18 µM (inactive) and the GI50 [22] was 18 µM (inactive). The GI50 [24] was 18.2 µM (inactive), the GI50 [25] was 24.3 µM (inactive) and the GI50 [26] was 15 µM (inactive). For the same molecule, the GI50 [28] was 29.3 µM (inactive), the GI50 [29] was 18.8 µM (inactive) and the GI50 [30] was 17.3 µM (inactive). For the same molecule, the GI50 [31] was 22.9 µM, the GI50 [32] was 39.8 µM (inactive) and the GI50 [33] was 99.3 µM (inactive). For the same molecule, the GI50 [34] was 4.91 µM (inactive), the GI50 [35] was 22.5 µM (inactive) and the GI50 [36] was 20.6 µM (inactive). For the same molecule, the GI50 [37] was 34 µM (inactive), the GI50 [39] was 57.8 µM (inactive) and the GI50 [40] was 24.8 µM (inactive). For the same molecule, the GI50 [41] was 20.2 µM (inactive), the GI50 [42] was 22.3 µM (inactive) and the GI50 [43] was 25.8 µM (inactive). The GI50 [44] was 15.6 µM (inactive), the GI50 [46] was > 10 µM (inactive) and the GI50 [48] was 12.7 µM (inactive). For the same molecule, the GI50 [49] was 20.8 µM (inactive), the GI50 [50] was 28.1 µM (inactive) and the GI50 [51] was 7.89 µM (inactive). The GI50 [52] was 20.9 µM (inactive), the GI50 [53] was 27.5 µM (inactive) and the GI50 [54] was 17.3 µM (inactive).
